Results: BindingDB's records for doi:10.1016/j.bmcl.2005.03.089 (Yunnan University, 2022)

What follows are compounds tested against Replicase polyprotein 1ab (Severe acute respiratory syndrome coronavirus 2, UniProt P0DTD1) (assay: Inhibition of SARS-CoV-2 MPro incubated for 5 mins by FRET assay).
Compound `CC(C)(O)C1Cc2cc(/C=C3\OC(=O)C(c4cc5c(cc4O)OC(C)(C)C(O)C5)=C3O)ccc2O1` (stereo not drawn) has an IC50 of 9.4 µM. For `CC(C)=CCc1cc(/C=C2\OC(=O)C(c3cc4c(cc3O)OC(C)(C)CC4)=C2O)ccc1O`, the IC50 was 10.3 µM. `CC(C)=CCc1cc(/C=C2\OC(=O)C(c3cc(CCC(C)(C)O)c(O)cc3O)=C2O)ccc1O` showed an IC50 of 7.7 µM.
